{"source": "the NIST ThermoML archive (doi:10.1007/s10765-019-2484-6)", "test": "xn = mol fraction of the nth substance listed", "details": "Gas, Loschmidt cell combined with holographic interferometry"}
{"smiles": "CCC", "note": "[propane] + O=C=O", "values": [{"measurement": "binary diffusion coefficient", "setting": "293.24 K, 50 kPa, x1 = 0.5", "result": "1.89e-05", "unit": "m2/s"}, {"measurement": "binary diffusion coefficient", "setting": "293.25 K, 100 kPa, x1 = 0.1665", "result": "8.54e-06", "unit": "m2/s"}, {"measurement": "binary diffusion coefficient", "setting": "293.25 K, 200 kPa, x1 = 0.1665", "result": "4.14e-06", "unit": "m2/s"}, {"measurement": "binary diffusion coefficient", "setting": "293.27 K, 100 kPa, x1 = 0.333", "result": "8.31e-06", "unit": "m2/s"}, {"measurement": "binary diffusion coefficient", "setting": "293.27 K, 100 kPa, x1 = 0.833", "result": "8.29e-06", "unit": "m2/s"}, {"measurement": "binary diffusion coefficient", "setting": "293.27 K, 500 kPa, x1 = 0.1665", "result": "1.59e-06", "unit": "m2/s"}, {"measurement": "binary diffusion coefficient", "setting": "293.28 K, 200 kPa, x1 = 0.333", "result": "4.12e-06", "unit": "m2/s"}, {"measurement": "binary diffusion coefficient", "setting": "293.28 K, 200 kPa, x1 = 0.833", "result": "4.06e-06", "unit": "m2/s"}, {"measurement": "binary diffusion coefficient", "setting": "293.3 K, 500 kPa, x1 = 0.333", "result": "1.71e-06", "unit": "m2/s"}, {"measurement": "binary diffusion coefficient", "setting": "293.31 K, 200 kPa, x1 = 0.4995", "result": "4.12e-06", "unit": "m2/s"}, {"measurement": "binary diffusion coefficient", "setting": "293.32 K, 100 kPa, x1 = 0.4995", "result": "8.23e-06", "unit": "m2/s"}, {"measurement": "binary diffusion coefficient", "setting": "293.32 K, 500 kPa, x1 = 0.833", "result": "1.51e-06", "unit": "m2/s"}, {"measurement": "binary diffusion coefficient", "setting": "293.33 K, 200 kPa, x1 = 0.6665", "result": "4.06e-06", "unit": "m2/s"}, {"measurement": "binary diffusion coefficient", "setting": "293.33 K, 500 kPa, x1 = 0.4995", "result": "1.49e-06", "unit": "m2/s"}, {"measurement": "binary diffusion coefficient", "setting": "293.36 K, 100 kPa, x1 = 0.6665", "result": "8.25e-06", "unit": "m2/s"}, {"measurement": "binary diffusion coefficient", "setting": "293.37 K, 200 kPa, x1 = 0.5", "result": "4.06e-06", "unit": "m2/s"}, {"measurement": "binary diffusion coefficient", "setting": "293.39 K, 500 kPa, x1 = 0.5", "result": "1.54e-06", "unit": "m2/s"}, {"measurement": "binary diffusion coefficient", "setting": "293.41 K, 500 kPa, x1 = 0.6665", "result": "1.52e-06", "unit": "m2/s"}, {"measurement": "binary diffusion coefficient", "setting": "293.47 K, 100 kPa, x1 = 0.5", "result": "8.23e-06", "unit": "m2/s"}, {"measurement": "binary diffusion coefficient", "setting": "313.21 K, 200 kPa, x1 = 0.333", "result": "4.88e-06", "unit": "m2/s"}, {"measurement": "binary diffusion coefficient", "setting": "313.21 K, 500 kPa, x1 = 0.5", "result": "1.77e-06", "unit": "m2/s"}, {"measurement": "binary diffusion coefficient", "setting": "313.22 K, 200 kPa, x1 = 0.5", "result": "4.77e-06", "unit": "m2/s"}, {"measurement": "binary diffusion coefficient", "setting": "313.23 K, 100 kPa, x1 = 0.6665", "result": "9.67e-06", "unit": "m2/s"}, {"measurement": "binary diffusion coefficient", "setting": "313.23 K, 200 kPa, x1 = 0.833", "result": "4.77e-06", "unit": "m2/s"}, {"measurement": "binary diffusion coefficient", "setting": "313.25 K, 100 kPa, x1 = 0.833", "result": "9.53e-06", "unit": "m2/s"}, {"measurement": "binary diffusion coefficient", "setting": "313.26 K, 100 kPa, x1 = 0.333", "result": "9.71e-06", "unit": "m2/s"}, {"measurement": "binary diffusion coefficient", "setting": "313.26 K, 200 kPa, x1 = 0.6665", "result": "4.79e-06", "unit": "m2/s"}, {"measurement": "binary diffusion coefficient", "setting": "313.27 K, 500 kPa, x1 = 0.333", "result": "1.94e-06", "unit": "m2/s"}, {"measurement": "binary diffusion coefficient", "setting": "313.27 K, 500 kPa, x1 = 0.6665", "result": "1.85e-06", "unit": "m2/s"}, {"measurement": "binary diffusion coefficient", "setting": "313.27 K, 500 kPa, x1 = 0.833", "result": "1.86e-06", "unit": "m2/s"}, {"measurement": "binary diffusion coefficient", "setting": "313.28 K, 100 kPa, x1 = 0.1665", "result": "9.79e-06", "unit": "m2/s"}, {"measurement": "binary diffusion coefficient", "setting": "313.28 K, 200 kPa, x1 = 0.1665", "result": "4.8e-06", "unit": "m2/s"}, {"measurement": "binary diffusion coefficient", "setting": "313.29 K, 200 kPa, x1 = 0.4995", "result": "4.8e-06", "unit": "m2/s"}, {"measurement": "binary diffusion coefficient", "setting": "313.31 K, 500 kPa, x1 = 0.1665", "result": "1.95e-06", "unit": "m2/s"}, {"measurement": "binary diffusion coefficient", "setting": "313.32 K, 100 kPa, x1 = 0.4995", "result": "9.71e-06", "unit": "m2/s"}]}
{"smiles": "C", "note": "[methane] + CCC", "values": [{"measurement": "binary diffusion coefficient", "setting": "293.09 K, 500 kPa, x2 = 0.659", "result": "2.12e-06", "unit": "m2/s"}, {"measurement": "binary diffusion coefficient", "setting": "293.12 K, 500 kPa, x2 = 0.3331", "result": "2.19e-06", "unit": "m2/s"}, {"measurement": "binary diffusion coefficient", "setting": "293.12 K, 500 kPa, x2 = 0.492", "result": "2.07e-06", "unit": "m2/s"}, {"measurement": "binary diffusion coefficient", "setting": "293.13 K, 500 kPa, x2 = 0.833", "result": "1.97e-06", "unit": "m2/s"}, {"measurement": "binary diffusion coefficient", "setting": "293.16 K, 500 kPa, x2 = 0.5", "result": "2.19e-06", "unit": "m2/s"}, {"measurement": "binary diffusion coefficient", "setting": "293.18 K, 500 kPa, x2 = 0.159", "result": "2.36e-06", "unit": "m2/s"}, {"measurement": "binary diffusion coefficient", "setting": "293.19 K, 50 kPa, x2 = 0.5", "result": "2.36e-06", "unit": "m2/s"}, {"measurement": "binary diffusion coefficient", "setting": "293.21 K, 200 kPa, x2 = 0.5", "result": "5.78e-06", "unit": "m2/s"}, {"measurement": "binary diffusion coefficient", "setting": "293.29 K, 100 kPa, x2 = 0.5", "result": "1.18e-05", "unit": "m2/s"}, {"measurement": "binary diffusion coefficient", "setting": "293.31 K, 100 kPa, x2 = 0.4973", "result": "1.21e-05", "unit": "m2/s"}, {"measurement": "binary diffusion coefficient", "setting": "293.31 K, 100 kPa, x2 = 0.6665", "result": "1.18e-05", "unit": "m2/s"}, {"measurement": "binary diffusion coefficient", "setting": "293.31 K, 200 kPa, x2 = 0.6665", "result": "5.81e-06", "unit": "m2/s"}, {"measurement": "binary diffusion coefficient", "setting": "293.32 K, 100 kPa, x2 = 0.159", "result": "1.24e-05", "unit": "m2/s"}, {"measurement": "binary diffusion coefficient", "setting": "293.32 K, 100 kPa, x2 = 0.3335", "result": "1.18e-05", "unit": "m2/s"}, {"measurement": "binary diffusion coefficient", "setting": "293.33 K, 100 kPa, x2 = 0.833", "result": "1.18e-05", "unit": "m2/s"}, {"measurement": "binary diffusion coefficient", "setting": "293.33 K, 200 kPa, x2 = 0.159", "result": "6.16e-06", "unit": "m2/s"}, {"measurement": "binary diffusion coefficient", "setting": "293.33 K, 200 kPa, x2 = 0.3335", "result": "5.7e-06", "unit": "m2/s"}, {"measurement": "binary diffusion coefficient", "setting": "293.33 K, 200 kPa, x2 = 0.833", "result": "5.77e-06", "unit": "m2/s"}, {"measurement": "binary diffusion coefficient", "setting": "293.34 K, 200 kPa, x2 = 0.498", "result": "5.81e-06", "unit": "m2/s"}, {"measurement": "binary diffusion coefficient", "setting": "313.28 K, 500 kPa, x2 = 0.4995", "result": "2.71e-06", "unit": "m2/s"}, {"measurement": "binary diffusion coefficient", "setting": "313.52 K, 500 kPa, x2 = 0.832", "result": "2.73e-06", "unit": "m2/s"}, {"measurement": "binary diffusion coefficient", "setting": "313.54 K, 500 kPa, x2 = 0.1665", "result": "2.8e-06", "unit": "m2/s"}, {"measurement": "binary diffusion coefficient", "setting": "313.55 K, 100 kPa, x2 = 0.8295", "result": "1.37e-05", "unit": "m2/s"}, {"measurement": "binary diffusion coefficient", "setting": "313.55 K, 500 kPa, x2 = 0.332", "result": "2.79e-06", "unit": "m2/s"}, {"measurement": "binary diffusion coefficient", "setting": "313.55 K, 500 kPa, x2 = 0.5", "result": "2.72e-06", "unit": "m2/s"}, {"measurement": "binary diffusion coefficient", "setting": "313.56 K, 100 kPa, x2 = 0.3295", "result": "1.4e-05", "unit": "m2/s"}, {"measurement": "binary diffusion coefficient", "setting": "313.56 K, 100 kPa, x2 = 0.4995", "result": "1.31e-05", "unit": "m2/s"}, {"measurement": "binary diffusion coefficient", "setting": "313.57 K, 200 kPa, x2 = 0.4995", "result": "6.73e-06", "unit": "m2/s"}, {"measurement": "binary diffusion coefficient", "setting": "313.57 K, 200 kPa, x2 = 0.6665", "result": "6.92e-06", "unit": "m2/s"}, {"measurement": "binary diffusion coefficient", "setting": "313.58 K, 100 kPa, x2 = 0.159", "result": "1.52e-05", "unit": "m2/s"}, {"measurement": "binary diffusion coefficient", "setting": "313.58 K, 200 kPa, x2 = 0.5", "result": "6.91e-06", "unit": "m2/s"}, {"measurement": "binary diffusion coefficient", "setting": "313.59 K, 100 kPa, x2 = 0.5", "result": "1.38e-05", "unit": "m2/s"}, {"measurement": "binary diffusion coefficient", "setting": "313.59 K, 200 kPa, x2 = 0.3295", "result": "6.98e-06", "unit": "m2/s"}, {"measurement": "binary diffusion coefficient", "setting": "313.59 K, 500 kPa, x2 = 0.6665", "result": "2.76e-06", "unit": "m2/s"}, {"measurement": "binary diffusion coefficient", "setting": "313.6 K, 100 kPa, x2 = 0.6665", "result": "1.4e-05", "unit": "m2/s"}, {"measurement": "binary diffusion coefficient", "setting": "313.6 K, 200 kPa, x2 = 0.159", "result": "7.39e-06", "unit": "m2/s"}, {"measurement": "binary diffusion coefficient", "setting": "313.61 K, 200 kPa, x2 = 0.8295", "result": "6.76e-06", "unit": "m2/s"}]}
